Measurements: ChEMBL document CHEMBL4665697, “Synthesis of the Major Mammalian Metabolites of THCV” (J Nat Prod, 2020)

How the values were obtained:
Cannabinoid receptor 1 = Cannabinoid receptor 1 (Homo sapiens, UniProt P21554); assay: Displacement of [3H]-CP-55,940 from recombinant human CB1R expressed in HEK293 cell membranes after 90 mins; set-up: species or system Cell membrane
Cannabinoid receptor 2 = Cannabinoid receptor 2 (Homo sapiens, UniProt P34972); assay: Displacement of [3H]-CP-55,940 from recombinant human CB2R expressed in HEK293 cell membranes after 90 mins; set-up: species or system Cell membrane
Chain of Cannabinoid receptor 2 (P34972 whole entry): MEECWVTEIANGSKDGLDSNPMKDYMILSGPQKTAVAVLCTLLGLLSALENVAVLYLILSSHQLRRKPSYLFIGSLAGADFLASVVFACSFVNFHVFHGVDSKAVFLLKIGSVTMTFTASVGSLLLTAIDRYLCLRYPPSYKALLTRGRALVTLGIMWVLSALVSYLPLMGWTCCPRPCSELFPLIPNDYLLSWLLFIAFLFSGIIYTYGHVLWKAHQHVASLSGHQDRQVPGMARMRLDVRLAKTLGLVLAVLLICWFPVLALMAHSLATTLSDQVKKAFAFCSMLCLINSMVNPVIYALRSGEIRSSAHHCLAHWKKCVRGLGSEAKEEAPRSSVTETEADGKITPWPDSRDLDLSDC

Chain of Cannabinoid receptor 1 (P21554 whole entry): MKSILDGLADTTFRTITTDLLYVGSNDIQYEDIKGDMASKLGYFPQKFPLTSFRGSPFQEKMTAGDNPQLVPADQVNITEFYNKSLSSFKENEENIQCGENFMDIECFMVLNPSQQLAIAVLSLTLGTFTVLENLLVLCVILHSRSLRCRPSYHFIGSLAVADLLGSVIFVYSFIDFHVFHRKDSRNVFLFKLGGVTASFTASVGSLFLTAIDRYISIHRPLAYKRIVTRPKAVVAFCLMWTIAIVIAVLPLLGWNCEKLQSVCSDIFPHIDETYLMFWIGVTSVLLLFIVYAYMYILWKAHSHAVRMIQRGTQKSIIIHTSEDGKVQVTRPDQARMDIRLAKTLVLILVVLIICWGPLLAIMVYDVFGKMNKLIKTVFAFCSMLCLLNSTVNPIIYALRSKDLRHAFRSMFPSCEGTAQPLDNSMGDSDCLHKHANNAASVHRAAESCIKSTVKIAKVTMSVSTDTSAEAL

CCCc1cc(O)c2c(c1)OC(C)(C)[C@@H]1CCC(CO)=C[C@@H]21
IC50 (Cannabinoid receptor 1): 22.7 nM | Ki (Cannabinoid receptor 1): 2.5 nM | IC50 (Cannabinoid receptor 2): 29.8 nM | Ki (Cannabinoid receptor 2): 4.7 nM

CCCc1cc(O)c2c(c1)OC(C)(C)[C@@H]1CCC(C(=O)O)=C[C@@H]21
IC50 (Cannabinoid receptor 1): 1680 nM | Ki (Cannabinoid receptor 1): 187 nM | IC50 (Cannabinoid receptor 2): 3720 nM | Ki (Cannabinoid receptor 2): 590 nM

CCCc1cc(O)c2c(c1)OC(C)(C)[C@@H]1C[C@H](O)C(C)=C[C@@H]21
IC50 (Cannabinoid receptor 1): 230 nM | Ki (Cannabinoid receptor 1): 25.6 nM | IC50 (Cannabinoid receptor 2): 808 nM | Ki (Cannabinoid receptor 2): 128 nM

CCCc1cc(O)c2c(c1)OC(C)(C)[C@@H]1C[C@@H](O)C(C)=C[C@@H]21
IC50 (Cannabinoid receptor 1): > 10000 nM | Ki (Cannabinoid receptor 1): > 10000 nM | IC50 (Cannabinoid receptor 2): > 10000 nM | Ki (Cannabinoid receptor 2): > 10000 nM

CCCc1cc(O)c2c(c1)OC(C)(C)[C@@H]1CCC(C)=C[C@@H]21 [TETRAHYDROCANNABIVARIN]
IC50 (Cannabinoid receptor 1): 13.1 nM | Ki (Cannabinoid receptor 1): 1.5 nM | IC50 (Cannabinoid receptor 2): 17.6 nM | Ki (Cannabinoid receptor 2): 2.8 nM
